Source: patent publication US10294202B2, “Pyrrolidinones as herbicides” (FMC Corporation, priority 2013, dated 2019)

Key:
barnyardgrass [1] = assay: Test A pre-/postemergence herbicide test; assay type: in vivo, Echinochloa crus-galli
How it was run: (§1)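 Formulated compound (non-phytotoxic solvent, surfactant) sprayed pre- onto soil of seeded loam/sand pots or post- onto seedlings at 1–2 leaves; ~10 d greenhouse; 0–100 visual control rating versus untreated.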

kochia = assay: Test A pre-/postemergence herbicide test; assay type: in vivo, Kochia scoparia
How it was run: as §1

ragweed = assay: Test A pre-/postemergence herbicide test; assay type: in vivo, Ambrosia elatior
How it was run: as §1

ryegrass, Italian = assay: Test A pre-/postemergence herbicide test; assay type: in vivo, Lolium multiflorum
How it was run: as §1

giant foxtail = assay: Test A pre-/postemergence herbicide test; assay type: in vivo, Setaria faberii
How it was run: as §1

pigweed = assay: Test A pre-/postemergence herbicide test; assay type: in vivo, Amaranthus retroflexus
How it was run: as §1

wheat = assay: Test A pre-/postemergence herbicide test; assay type: in vivo, Triticum aestivum; details: Postemergence
How it was run: as §1

corn = assay: Test A pre-/postemergence herbicide test; assay type: in vivo, Zea mays; details: Postemergence
How it was run: as §1

blackgrass = assay: Test A postemergence herbicide test; assay type: in vivo, Alopecurus myosuroides
How it was run: (§2)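 Young potted plants in a loam–sand mix, one- to two-leaf stage and 2–10 cm tall, receive the test chemical postemergence and stay in a greenhouse for approximately 10 days. Injury is then judged by eye against untreated plants, scored 0 (none) to 100 (complete control).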

galium = assay: Test A postemergence herbicide test; assay type: in vivo, Galium aparine
How it was run: as §2

rice = assay: Test B flooded paddy test; assay type: in vivo, Oryza sativa; details: 500 g ai/ha, Flood; scale of 0 to 100 where 0 is no effect and 100 is complete control
How it was run: (§3)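 Visual ratings from 0, meaning no effect, up to 100, meaning complete control, were made by comparison with untreated controls 13 to 15 days after treatment. Test compounds went straight into floodwater standing 3 cm over the soil of pots holding 2-leaf seedlings.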

sedge, umbrella = assay: Test B flooded paddy test; assay type: in vivo, Cyperus difformis; details: 500 g ai/ha, Flood; scale of 0 to 100 where 0 is no effect and 100 is complete control
How it was run: as §3

ducksalad = assay: Test B flooded paddy test; assay type: in vivo, Heteranthera limosa; details: 500 g ai/ha, Flood; scale of 0 to 100 where 0 is no effect and 100 is complete control
How it was run: as §3

barnyardgrass [2] = assay: Test B flooded paddy test; assay type: in vivo, Echinochloa crus-galli; details: 500 g ai/ha, Flood; scale of 0 to 100 where 0 is no effect and 100 is complete control
How it was run: as §3

[3] = Postemergence, 125 g ai/ha, visual rating on 0 to 100 scale (0 no effect, 100 complete control), approx. 10 days
[4] = Postemergence, 500 g ai/ha, 0 to 100 scale (0 no effect, 100 complete control)
[5] = Preemergence, 125 g ai/ha, 0 to 100 scale where 0 is no effect and 100 is complete control
[6] = preemergence, 500 g ai/ha, 0 to 100 scale, 0 is no effect and 100 is complete control
[7] = Preemergence, 500 g ai/ha, visual rating on 0 to 100 scale (0 no effect, 100 complete control)
[8] = 125 g ai/ha, visual rating on 0 to 100 scale (0 no effect, 100 complete control), approx. 10 days
[9] = 500 g ai/ha, 0 to 100 scale (0 no effect, 100 complete control)

CSc1cccc(C2CNC(=O)C2C(=O)Nc2ccc(F)c(F)c2F)c1 (stereo not drawn) [Compound 290]
Plant response rating, Barnyardgrass (barnyardgrass [1]; [3]): 50
Plant response rating, Barnyardgrass (barnyardgrass [1]; [4]): 80
Plant response rating, Barnyardgrass (barnyardgrass [1]; [5]): 60
Plant response rating, Barnyardgrass (barnyardgrass [1]; [6]): 80
Plant response rating, Kochia (kochia; [3]): 0
Plant response rating, Kochia (kochia; [4]): 0
Plant response rating, Kochia (kochia; [5]): 0
Plant response rating, Kochia (kochia; [6]): 0
Plant response rating, Ragweed (ragweed; [3]): 0
Plant response rating, Ragweed (ragweed; [4]): 0
Plant response rating, Ragweed (ragweed; [5]): 0
Plant response rating, Ragweed (ragweed; [6]): 0
Plant response rating, Ryegrass, Italian (ryegrass, Italian; [3]): 0
Plant response rating, Ryegrass, Italian (ryegrass, Italian; [4]): 0
Plant response rating, Ryegrass, Italian (ryegrass, Italian; [5]): 0
Ryegrass, Italian plant response rating (ryegrass, Italian; [7]): 0
Plant response rating, Foxtail, Giant (giant foxtail; [3]): 30
Plant response rating, Foxtail, Giant (giant foxtail; [4]): 60
Plant response rating, Foxtail, Giant (giant foxtail; [5]): 60
Plant response rating, Foxtail, Giant (giant foxtail; [6]): 80
Plant response rating, Pigweed (pigweed; [3]): 0
Plant response rating, Pigweed (pigweed; [4]): 10
Plant response rating, Pigweed (pigweed; [5]): 0
Plant response rating, Pigweed (pigweed; [6]): 0
Plant response rating, Wheat (wheat; [8]): 0
Plant response rating, Wheat (wheat; [9]): 0
Plant response rating, Corn (corn; [8]): 0
Plant response rating, Corn (corn; [9]): 0
Plant response rating, Blackgrass (blackgrass; [8]): 0
Plant response rating, Blackgrass (blackgrass; [9]): 0
Plant response rating, Galium (galium; [8]): 0
Plant response rating, Galium (galium; [9]): 0
Plant response rating, Rice (rice): 0
Plant response rating, Sedge, Umbrella (sedge, umbrella): 0
Plant response rating, Ducksalad (ducksalad): 75
Plant response rating, Barnyardgrass (barnyardgrass [2]): 40

CSc1cccc(C2CNC(=O)C2C(=O)Nc2ccccc2Cl)c1 (stereo not drawn) [Compound 291]
Plant response rating, Barnyardgrass (barnyardgrass [1]; [3]): 40
Plant response rating, Barnyardgrass (barnyardgrass [1]; [4]): 60
Plant response rating, Barnyardgrass (barnyardgrass [1]; [5]): 20
Plant response rating, Barnyardgrass (barnyardgrass [1]; [6]): 60
Plant response rating, Kochia (kochia; [3]): 0
Plant response rating, Kochia (kochia; [4]): 0
Plant response rating, Kochia (kochia; [5]): 20
Plant response rating, Kochia (kochia; [6]): 20
Plant response rating, Ragweed (ragweed; [3]): 0
Plant response rating, Ragweed (ragweed; [4]): 0
Plant response rating, Ragweed (ragweed; [5]): 0
Plant response rating, Ragweed (ragweed; [6]): 0
Plant response rating, Ryegrass, Italian (ryegrass, Italian; [3]): 0
Plant response rating, Ryegrass, Italian (ryegrass, Italian; [4]): 0
Plant response rating, Ryegrass, Italian (ryegrass, Italian; [5]): 0
Ryegrass, Italian plant response rating (ryegrass, Italian; [7]): 30
Plant response rating, Foxtail, Giant (giant foxtail; [3]): 20
Plant response rating, Foxtail, Giant (giant foxtail; [4]): 50
Plant response rating, Foxtail, Giant (giant foxtail; [5]): 20
Plant response rating, Foxtail, Giant (giant foxtail; [6]): 80
Plant response rating, Pigweed (pigweed; [3]): 0
Plant response rating, Pigweed (pigweed; [4]): 0
Plant response rating, Pigweed (pigweed; [5]): 0
Plant response rating, Pigweed (pigweed; [6]): 0
Plant response rating, Wheat (wheat; [8]): 0
Plant response rating, Wheat (wheat; [9]): 0
Plant response rating, Corn (corn; [8]): 0
Plant response rating, Corn (corn; [9]): 0
Plant response rating, Blackgrass (blackgrass; [8]): 0
Plant response rating, Blackgrass (blackgrass; [9]): 0
Plant response rating, Galium (galium; [8]): 20
Plant response rating, Galium (galium; [9]): 0
Plant response rating, Rice (rice): 20
Plant response rating, Sedge, Umbrella (sedge, umbrella): 0
Plant response rating, Ducksalad (ducksalad): 0
Plant response rating, Barnyardgrass (barnyardgrass [2]): 0

O=C1NCC(c2ccc(Cl)s2)C1C(=O)Nc1ccccc1F (stereo not drawn) [Compound 292]
Plant response rating, Barnyardgrass (barnyardgrass [1]; [3]): 50
Plant response rating, Barnyardgrass (barnyardgrass [1]; [4]): 70
Plant response rating, Barnyardgrass (barnyardgrass [1]; [5]): 70
Plant response rating, Barnyardgrass (barnyardgrass [1]; [6]): 80
Plant response rating, Kochia (kochia; [3]): 0
Plant response rating, Kochia (kochia; [4]): 0
Plant response rating, Kochia (kochia; [5]): 30
Plant response rating, Kochia (kochia; [6]): 80
Plant response rating, Ragweed (ragweed; [3]): 0
Plant response rating, Ragweed (ragweed; [4]): 0
Plant response rating, Ragweed (ragweed; [5]): 0
Plant response rating, Ragweed (ragweed; [6]): 0
Plant response rating, Ryegrass, Italian (ryegrass, Italian; [3]): 0
Plant response rating, Ryegrass, Italian (ryegrass, Italian; [4]): 0
Plant response rating, Ryegrass, Italian (ryegrass, Italian; [5]): 0
Ryegrass, Italian plant response rating (ryegrass, Italian; [7]): 0
Plant response rating, Foxtail, Giant (giant foxtail; [3]): 50
Plant response rating, Foxtail, Giant (giant foxtail; [4]): 60
Plant response rating, Foxtail, Giant (giant foxtail; [5]): 50
Plant response rating, Foxtail, Giant (giant foxtail; [6]): 60
Plant response rating, Pigweed (pigweed; [3]): 0
Plant response rating, Pigweed (pigweed; [4]): 0
Plant response rating, Pigweed (pigweed; [5]): 0
Plant response rating, Pigweed (pigweed; [6]): 0
Plant response rating, Wheat (wheat; [8]): 0
Plant response rating, Wheat (wheat; [9]): 0
Plant response rating, Corn (corn; [8]): 0
Plant response rating, Corn (corn; [9]): 0
Plant response rating, Blackgrass (blackgrass; [8]): 0
Plant response rating, Blackgrass (blackgrass; [9]): 0
Plant response rating, Galium (galium; [8]): 10
Plant response rating, Galium (galium; [9]): 20
Plant response rating, Rice (rice): 0
Plant response rating, Sedge, Umbrella (sedge, umbrella): 0
Plant response rating, Ducksalad (ducksalad): 100
Plant response rating, Barnyardgrass (barnyardgrass [2]): 50

O=C1NCC(c2cnn(CC(F)(F)F)c2)C1C(=O)Nc1ccccc1F (stereo not drawn) [Compound 298]
Plant response rating, Barnyardgrass (barnyardgrass [1]; [3]): 0
Plant response rating, Barnyardgrass (barnyardgrass [1]; [4]): 0
Plant response rating, Barnyardgrass (barnyardgrass [1]; [5]): 0
Plant response rating, Barnyardgrass (barnyardgrass [1]; [6]): 0
Plant response rating, Kochia (kochia; [3]): 0
Plant response rating, Kochia (kochia; [4]): 0
Plant response rating, Kochia (kochia; [5]): 0
Plant response rating, Kochia (kochia; [6]): 0
Plant response rating, Ragweed (ragweed; [3]): 0
Plant response rating, Ragweed (ragweed; [4]): 0
Plant response rating, Ragweed (ragweed; [5]): 0
Plant response rating, Ragweed (ragweed; [6]): 0
Plant response rating, Ryegrass, Italian (ryegrass, Italian; [3]): 0
Plant response rating, Ryegrass, Italian (ryegrass, Italian; [4]): 0
Plant response rating, Ryegrass, Italian (ryegrass, Italian; [5]): 0
Ryegrass, Italian plant response rating (ryegrass, Italian; [7]): 0
Plant response rating, Foxtail, Giant (giant foxtail; [3]): 0
Plant response rating, Foxtail, Giant (giant foxtail; [4]): 0
Plant response rating, Foxtail, Giant (giant foxtail; [5]): 0
Plant response rating, Foxtail, Giant (giant foxtail; [6]): 0
Plant response rating, Pigweed (pigweed; [3]): 0
Plant response rating, Pigweed (pigweed; [4]): 0
Plant response rating, Pigweed (pigweed; [5]): 0
Plant response rating, Pigweed (pigweed; [6]): 0
Plant response rating, Wheat (wheat; [8]): 0
Plant response rating, Wheat (wheat; [9]): 0
Plant response rating, Corn (corn; [8]): 0
Plant response rating, Corn (corn; [9]): 0
Plant response rating, Blackgrass (blackgrass; [8]): 0
Plant response rating, Blackgrass (blackgrass; [9]): 0
Plant response rating, Galium (galium; [8]): 0
Plant response rating, Galium (galium; [9]): 0
Plant response rating, Rice (rice): 0
Plant response rating, Sedge, Umbrella (sedge, umbrella): 0
Plant response rating, Ducksalad (ducksalad): 0
Plant response rating, Barnyardgrass (barnyardgrass [2]): 0
